Experimental data reported in patent publication US10259772B2, “Agents for maintaining undifferentiated state and promoting proliferation of stem cells” (NIPPON MENARD COSMETIC CO., LTD., priority 2014, dated 2019).

Columns and labels:
Assay type in all cases: cell-based
human somatic stem cells [1] = test: Evaluation of proliferation-promoting effect on stem cells (cell count); conditions: 72 h, final concentration 0.001%, 3 days of culture, number of cells in no addition group (control) defined as 100%, read-out: Percent cell proliferation (%)
Experimental: 3×10^5 cells of human somatic stem cells (manufactured by DS Pharma Biomedical Co., Ltd.) cultured using a human stem cell culture medium (manufactured by Toyobo Co., Ltd.) were seeded in a 6 cm dish, one or a mixture (fatty acid glycerides 2+3, fatty acid glycerides 4+5) of fatty acid glycerides 1 to 9 was added at a final concentration of 0.001%, and culture was continued for 3 days. When a mixture of two fatty acid glycerides was used, the ratio thereof was 1:1 (weight ratio).
After 3 days of culture, cells were washed three times with PBS(−), then collected with a rubber policeman, and cells were counted for each culture.
The total number of cells without addition of fatty acid glycerides was defined as control and the control was defined as 100(%). Increase or decrease (%) of the number of cells with addition of fatty acid glycerides was calculated and the stem cell proliferation-promoting effect was evaluated.

[2] = system: murine embryonic stem cells (murine ES cells); test: Evaluation of undifferentiated state-maintaining effect on stem cells (Nanog gene expression, real-time PCR); conditions: final concentration 0.001%, 3 days of culture, Nanog/Gapdh relative expression at onset of culture defined as 100% undifferentiation, no addition control 25
From the text: Using a medium prepared by adding fetal bovine serum (FBS, 15%, manufactured by Sigma-Aldrich Co. LLC), a nucleoside solution (100 times dilution, manufactured by Sumitomo Dainippon Pharma Co., Ltd.), a non-essential amino acids solution (100 times dilution, manufactured by Sumitomo Dainippon Pharma Co., Ltd.), a β2-mercaptoethanol solution (100 times dilution, manufactured by Sumitomo Dainippon Pharma Co., Ltd.), an L-glutamine solution (100 times dilution, manufactured by Sumitomo Dainippon Pharma Co., Ltd.), penicillin (100 units/mL, manufactured by Sigma-Aldrich Co. LLC), and streptomycin (100 μg/mL, manufactured by Sigma-Aldrich Co. LLC) to Dulbecco's Modified Eagle Medium (manufactured by Gibco), 5×10^5 cells of murine embryonic stem cells (murine ES cells: manufactured by COSMO BIO Co., Ltd.) were seeded in a 6 cm dish coated with gelatin (manufactured by Sigma-Aldrich Co. LLC), one or a mixture of fatty acid glycerides 1 to 9 was added to the medium at a final concentration of 0.001%, and culture was continued for 3 days.
After 3 days of culture, cells were collected and washed twice with PBS(−) and RNA was extracted from the cells with Trizol Reagent (Invitrogen). Extracted RNA was reverse-transcripted to cDNA using 2-STEP real-time PCR kit (Applied Biosystems) and then real-time PCR (95° C.: 15 seconds, 60° C.: 30 seconds, 40 cycles) was performed by AB17300 (Applied Biosystems) using the following primer sets to confirm the gene expression of Nanog (undifferentiation marker: Cell Res. 2007 January; 17 (1): 42-9. Review. Nanog and transcriptional networks in embryonic stem cell pluripotency. Pan G, Thomson J A.). Other operations were conducted according to a determined procedure.
The undifferentiated state-maintaining effect was evaluated as follows: the value of the relative gene expression level of Nanog (Nanog gene expression level/Gapdh gene expression level) calculated as the ratio of the Nanog mRNA expression level to the Gapdh mRNA expression level, which is an internal standard, in murine ES cells at the onset of culture was defined as 100% undifferentiation; and relative thereto, the value of the relative gene expression level of Nanog in the ES cells after 3 days of culture was calculated and evaluated.

human somatic stem cells [3] = test: In vitro wound healing test (scratch assay); conditions: final concentration 0.001%, 100 × area of scratch region at 48 hours / area at 0 hours, no addition control 61
Experimental: The scratch assay (JP Publication (Kokai) No. 2013-18756), which is generally conducted as a method for evaluating the efficacy to promote wound healing, was conducted. Specifically, 5×10^5 cells of human somatic stem cells were seeded in a 3.5 cm dish, cultured using human stem cell culture medium to confluency, and then the bottom of the dish was scratched with the end of a sterilized tip to generate a gap in the cell sheet. Subsequently, the medium was changed to a medium supplemented with one or a mixture (fatty acid glycerides 2+3, fatty acid glycerides 4+5) of fatty acid glycerides 1 to 9 at a final concentration of 0.001% and the percent recovery of the cell gap was evaluated 48 hours later. To obtain the same area under a phase contrast microscope when obtaining images before and after the recovery, a mark that can be used as a reference point is provided near the scratch.
The scratch region 48 hours later was calculated as [scratch region 48 hours later]=100× [area of scratch region at 48 hours]/[area of scratch region at 0 hours] using a commercially available image analysis software. These test results are illustrated in Table 4 below.

Row | Compound | activity at 0.001 % (human somatic stem cells [1]) | Nanog expression level (%) after 3 days of culturing [2] | Scratch region 48 hours later (%) (human somatic stem cells [3])
1 | CCCCCC=CCC=CCCCCCCCC(=O)OCC(O)COC(=O)CCCCCCCCCCCCCCCCC (stereo not drawn) [Fatty acid glyceride 5, 1-Stearin-3-linolein] | 145% | 57% | 40%
2 | CCCCCCCC/C=C\CCCCCCCC(=O)OCC(COC(=O)CCCCCCC/C=C\CCCCCCCC)OC(=O)CCCCCCC/C=C\CCCCCCCC [Fatty acid glyceride 8, Triolein] | 118% | 35% | 52%
3 | CCCCCCCCC=CCCCCCCCC(=O)OCC(O)COC(=O)CCCCCCCC=CCCCCCCCC (stereo not drawn) [Fatty acid glyceride 6, 1,3-Diolein] | 130% | 43% | 44%
4 | CCCCCC=CCC=CCCCCCCCC(=O)OCC(O)COC(=O)CCCCCCCC=CCC=CCCCCC (stereo not drawn) [Fatty acid glyceride 3, 1,3-Dilinolein] | 158% | 65% | 32%
5 | CCCCCC=CCC=CCCCCCCCC(=O)OC(CO)COC(=O)CCCCCCCCCCCCCCC (stereo not drawn) [Fatty acid glyceride 7, 1-Palmitin-2-linolein] | 129% | 41% | 45%
6 | CCCCCC=CCC=CCCCCCCCC(=O)OCC(O)CO (stereo not drawn) [Fatty acid glyceride 1, 1-Monolinolein] | 115% | 33% | 54%
7 | CCCCCCCCCCCCCCCC(=O)O [Palmitic acid, reference compound] | 102% | 27% | 60%
8 | CCCCCC=CCC=CCCCCCCCC(=O)OCC(O)COC(=O)CCCCCCCCCCCCCCC (stereo not drawn) [Fatty acid glyceride 2, 1-Palmitin-3-linolein] | 160% | 71% | 30%
9 | CCCCCC=CCC=CCCCCCCCC(=O)OCC(O)COC(=O)CCCCCCCC=CCCCCCCCC (stereo not drawn) [Fatty acid glyceride 4, 1-Olein-3-linolein] | 148% | 59% | 38%
10 | CCCCCC=CCC=CCCCCCCCC(=O)OCC(COC(=O)CCCCCCCC=CCC=CCCCCC)OC(=O)CCCCCCCC=CCC=CCCCCC (stereo not drawn) [Fatty acid glyceride 9, Trilinolein] | 117% | 34% | 53%
11 | CCCCCCCCCCCCCCCC(=O)OCC(COC(=O)CCCCCCCCCCCCCCC)OC(=O)CCCCCCCCCCCCCCC [Tripalmitin, reference compound] | 103% | 26% | 59%
